Measured values taken from the supplement of paper PMC10307832.

Columns and labels:
Assay in all cases: relative viability (nuclei count vs DMSO), 5 days (fraction); higher = more cells survive
Decitabine + Navitoclax = compound: Nc1ncn([C@H]2C[C@H](O)[C@@H](CO)O2)c(=O)n1 [Decitabine] + CC1(C)CCC(c2ccc(Cl)cc2)=C(CN2CCN(c3ccc(C(=O)NS(=O)(=O)c4ccc(N[C@H](CCN5CCOCC5)CSc5ccccc5)c(S(=O)(=O)C(F)(F)F)c4)cc3)CC2)C1 [Navitoclax] (partner 0.5 µM)
Procedure, shortened: (§1)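 Each reported value is a median over duplicate plates. It expresses relative viability: treated-well nuclei count divided by vehicle-well nuclei count. Lung cancer cell lines in 1536-well plates were dosed by pin tool a day after seeding, alone with one drug or with a fixed anchor-drug dose plus five library-drug doses (not always all listed) in √10 steps, and nuclei were counted after 5 days.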

Cediranib + Lapatinib = compound: COc1cc2c(Oc3ccc4[nH]c(C)cc4c3F)ncnc2cc1OCCCN1CCCC1 [Cediranib] + CS(=O)(=O)CCNCc1ccc(-c2ccc3ncnc(Nc4ccc(OCc5cccc(F)c5)c(Cl)c4)c3c2)o1 [Lapatinib] (partner 2 µM)
Procedure, shortened: as §1

[1] = compound: O=C(C[C@H]1NCCC[C@@H]1O)Cn1cnc2cc(Br)c(Cl)cc2c1=O (racemic) [Halofuginone] + CCNC(=O)c1noc(-c2cc(C(C)C)c(O)cc2O)c1-c1ccc(CN2CCOCC2)cc1 [Luminespib] (partner 0.01 µM)
Procedure, shortened: as §1

Cediranib + AZD7762 = compound: COc1cc2c(Oc3ccc4[nH]c(C)cc4c3F)ncnc2cc1OCCCN1CCCC1 [Cediranib] + NC(=O)Nc1cc(-c2cccc(F)c2)sc1C(=O)N[C@H]1CCCNC1 [AZD7762] (partner 0.2 µM)
Procedure, shortened: as §1

Cell Line	relative viability (Decitabine + Navitoclax; first compound 0.04 µM)	relative viability (Decitabine + Navitoclax; first compound 0.1265 µM)	relative viability (Decitabine + Navitoclax; first compound 0.4 µM)	relative viability (Decitabine + Navitoclax; first compound 1.265 µM)	relative viability (Decitabine + Navitoclax; first compound 4 µM)	relative viability (Cediranib + Lapatinib; first compound 0.04 µM)	relative viability (Cediranib + Lapatinib; first compound 0.1265 µM)	relative viability (Cediranib + Lapatinib; first compound 0.4 µM)	relative viability (Cediranib + Lapatinib; first compound 1.265 µM)	relative viability (Cediranib + Lapatinib; first compound 4 µM)	relative viability ([1]; first compound 0.001 µM)	relative viability ([1]; first compound 0.003162 µM)	relative viability ([1]; first compound 0.01 µM)	relative viability ([1]; first compound 0.03162 µM)	relative viability ([1]; first compound 0.1 µM)	relative viability (Cediranib + AZD7762; first compound 0.04 µM)	relative viability (Cediranib + AZD7762; first compound 0.1265 µM)	relative viability (Cediranib + AZD7762; first compound 0.4 µM)	relative viability (Cediranib + AZD7762; first compound 1.265 µM)	relative viability (Cediranib + AZD7762; first compound 4 µM)
LC-2-ad	0.323	0.325	0.253	0.197	0.148	1.07	0.656	0.94	1.02	0.731	1.08	1	0.848	1.01	0.326	0.92	1.02	0.759	0.88	0.85
LCLC-97TM1	0.16	0.194	0.172	0.103	0.684	1.03		0.976	1.15	1.01	0.741	0.801	0.905	0.791	0.854	0.418		0.329	0.244	0.287
LK-2	0.739	0.881	0.664	0.358	0.332	1.01	0.728	0.842	0.952	0.732	0.152	0.147	0.181	0.205	0.179	0.463	0.275	0.327	0.284	0.319
LOU-NH91	0.372	0.645	0.503	0.458	0.525	0.818	0.788	0.807	0.676	0.761	0.332	0.361	0.354	0.346	0.339	0.803	0.86	0.693	0.697	0.803
LU99A	0.745	0.711	0.771	0.53	0.502	1.14		0.936	0.877	1.06	0.244	0.281	0.238	0.239	0.174	0.457		0.338	0.287	0.41
LXF-289	0.65	0.53	0.44	0.308	0.29	0.988	0.816	0.852	0.958	0.846	0.664	0.701	0.699	0.763	0.317	1.12		1.02	0.971	1.11
NCI-H23	0.558	0.45	0.305	0.21	0.224	0.977		1.21	0.881	1.38	0.213	0.184	0.203	0.203	0.231	0.222	0.383	0.246	0.331	0.286
NCI-H322M	0.841	0.892	0.777	0.505	0.509	0.578	0.915	0.562	0.617	0.52	0.944	0.855	0.915	0.719	0.318	0.621	0.671	0.495	0.424	0.565
NCI-H460	0.974	1.03	0.612	0.292	0.198	1.05	1.01	0.905	1	0.639	0.0339	0.0272	0.0348	0.0271	0.0193	0.727	0.679	0.584	0.574	0.616
NCI-H596	0.912	0.868	0.638	0.688	0.587	1.19	1.29	1.06	0.868	1.06	1.02	1.23	1.06	0.941	0.324	1.21	1.31	0.853	0.969	1.2
NCI-H647	0.796	0.836	0.355	0.219	0.178	1.46	1.19	1.08	1.02	1.19	0.141	0.153	0.147	0.137	0.129	0.498	0.462	0.389	0.404	0.475
NCI-H727	0.302	0.361	0.343	0.272	0.292	0.774	0.483	0.733	0.919	0.732	0.258	0.327	0.435	0.389	0.355	0.601	0.379	0.636	0.626	0.538
NCI-H838	0.734	0.512	0.321	0.366	0.309	1.02	0.796	0.914	0.737	1.11	0.366	0.257	0.335	0.349	0.158	0.978	0.934	0.934	0.896	0.975
NCI-H1355	0.695	0.583	0.471	0.248	0.913	1.01	0.693	0.955	0.798	1.03	0.716	0.635	0.672	0.672	0.579	0.806	1.08	0.717	0.668	0.714
NCI-H1395	0.913	0.733	0.715	0.598	0.703	0.961		1.35	0.97	1.01	0.826	0.655	0.626	0.656	0.642	0.382	0.404	0.378	0.402	0.392
NCI-H1437	0.768	0.676	0.371	0.271	0.27	0.87	0.791	0.764	0.842	1.03	1.12	1.1	1.1	1.04	0.879	1.12	1.1	1.15	1.07	0.998

Cell Line	relative viability (Decitabine + Navitoclax; first compound 0.04 µM)	relative viability (Decitabine + Navitoclax; first compound 0.1265 µM)	relative viability (Decitabine + Navitoclax; first compound 0.4 µM)	relative viability (Decitabine + Navitoclax; first compound 1.265 µM)	relative viability (Decitabine + Navitoclax; first compound 4 µM)	relative viability (Cediranib + Lapatinib; first compound 0.04 µM)	relative viability (Cediranib + Lapatinib; first compound 0.1265 µM)	relative viability (Cediranib + Lapatinib; first compound 0.4 µM)	relative viability (Cediranib + Lapatinib; first compound 1.265 µM)	relative viability (Cediranib + Lapatinib; first compound 4 µM)	relative viability ([1]; first compound 0.001 µM)	relative viability ([1]; first compound 0.003162 µM)	relative viability ([1]; first compound 0.01 µM)	relative viability ([1]; first compound 0.03162 µM)	relative viability ([1]; first compound 0.1 µM)	relative viability (Cediranib + AZD7762; first compound 0.04 µM)	relative viability (Cediranib + AZD7762; first compound 0.1265 µM)	relative viability (Cediranib + AZD7762; first compound 0.4 µM)	relative viability (Cediranib + AZD7762; first compound 1.265 µM)	relative viability (Cediranib + AZD7762; first compound 4 µM)
NCI-H1651	0.893	1.03	0.958	0.684	0.876	0.819	0.919	0.825	0.668	0.855	0.7	0.797	0.802	0.65	0.427	0.437	0.527	0.471	0.314	0.524
NCI-H1666	0.85	0.776	0.687	0.465	0.487	0.678	0.339	0.554	0.541	0.69	1.01	0.968	0.996	0.958	0.783	0.868	0.757	0.907	0.767	0.894
NCI-H1734	0.583	0.57	0.424	0.268	0.246	0.913	0.989	1.07	0.826	1.21	0.198	0.199	0.224	0.233	0.187	0.679	0.952	0.446	0.42	0.629
NCI-H1755	0.912	0.887	0.696	0.521	0.302	1.14	0.778	1.01	1.05	0.941	0.469	0.41	0.392	0.565	0.445	0.423	0.617	0.375	0.43	0.425
NCI-H1792	0.6	0.672	0.625	0.454	0.304	0.792	0.628	0.863	0.875	0.735	0.498	0.402	0.414	0.452	0.296		0.922	0.554	0.658	0.838
NCI-H1793	0.356	0.406	0.333	0.227	0.169	0.838	0.693	0.654		0.742	0.181	0.191	0.172	0.211	0.161	0.521	0.492	0.418	0.329	0.394
NCI-H1915	0.338	0.253	0.223	0.184	0.188	1.01	0.731	0.924	0.969	0.983	0.787	0.826	0.794	0.719	0.55	0.657	0.8	0.715	0.709	0.719
NCI-H1944	0.689	0.669	0.564	0.423	0.365	0.969	0.8	0.78	0.705	0.908	0.647	0.7	0.763	0.735	0.313	0.487	0.586	0.481	0.408	0.582
NCI-H1975	0.431	0.317	0.291	0.256	0.256	1.06	1.26	0.801	0.905	0.835	0.24	0.215	0.272	0.241	0.183	0.687	0.73	0.782	0.799	0.602
NCI-H1993	0.917	0.993	0.906	0.732	0.87	0.8	0.675	0.815	0.755	0.887	1	1.05	0.699	0.863	0.682		0.923	0.819	0.588	0.755
NCI-H2085	0.882	0.736	0.67	0.497	0.467	0.846	0.791	0.839	0.725	0.774	0.41	0.5	0.48	0.489	0.377	0.966	0.987	0.921	1.11	0.997
NCI-H2087	0.635	0.562	0.458	0.369	0.357	1.08	0.825	1.01	0.984	1.07	0.179	0.152	0.178	0.174	0.134	1.08	1.34	1.26	1.23	1.43
NCI-H2126	0.777	0.787	0.548	0.491	0.574	0.749	0.595	0.715	0.55	0.741	0.901	0.92	0.928	0.914	0.675	0.985	1.08	1.01	0.87	1.05
NCI-H2170	0.402	0.338	0.382	0.238	0.204	0.295	0.277	0.243	0.232	0.268	0.681	0.631	0.557	0.758	0.603	0.871		0.743	0.611	1.1
NCI-H2347	0.792	0.543	0.425	0.385	0.348	1.07	0.512	0.916	0.909	0.964	0.513	0.321	0.483	0.511	0.598	0.808	0.808	0.755	0.746	0.691
NCI-H2405	0.769	0.837	0.455	0.355	0.244	1.02	1.13	1.11	1.13	1.09	0.797	0.691	0.72	0.688	0.663	0.749	1.31	0.594	0.864	0.803
